Patent publication US9163032B2, “Esters of DCPLA and methods of treatment using the same” (Blanchette Rockefeller Neurosciences Institute, priority 2011, dated 2015)
“Also recorded” adds a separate entry of the source.

Legend:
Wistar rats [1] = assay: Water maze spatial learning and memory task; type: in vivo, rat; conditions: for water maze learning performance (escape latency) vs control: 8 doses, rats
Description: (§1) Water maze spatial learning and memory task (2 training trials/day for 4 days) was used to evaluate effects of oral DCPLA-ME on learning and memory in rats. A visible platform test was conducted after the end of the experiments to evaluate whether the treatment might result in an altered sensorimotor activity and escape motivation.
Male adult Wistar rats (200-250 g) were housed in a temperature-controlled (20-24° C.) room for a week, allowed free access to food and water, and kept on a 12-h light/dark cycle. Rats were anesthetized with sodium pentobarbital (60 mg/kg i.p) and placed in a stereotactic apparatus (Kopf Instruments, Tujunga, Calif.). The core temperature of rats was monitored and kept constant (38.0±0.5° C.) with warming light and pad. Two stainless steel guide cannulas were placed with the tips positioned at the coordinates (anterior-posterior, 0.5 mm; lateral, 1.5 mm; horizontal, 3.2 mm), under aseptic conditions. At the end of surgery and under appropriate anesthesia, rats received (s.c.) banamine (1 mg/kg) and ketoprofen (5 mg/kg) in lactate/Ringer's solution. A 7-day recovery period was allowed before any further experimentation.
On the first day of experiments, all rats were randomly assigned to different groups and swam for 2 min in a 1.5-(diameter)×0.6-m (depth) pool (22±1° C.). On the following day, rats were trained in a two-trial per day task for four consecutive days. Each training trial lasted for up to 2 min, during which rats learned to escape from water by finding a hidden platform that was placed at a fixed location and submerged 1 cm below the water surface. The navigation of the rats was tracked by a video camera. The escape latency and the route of rats' swimming across the pool to the platform were recorded. The quadrant test (1 min) was performed after removing the platform, 24 hr after the last training trial. […]
Data were analyzed using a target quadrant ratio (dividing the target quadrant distance by the average of the non-target quadrant values during the probe test; FIG. 14D).

PKC-α = PKC-α (Homo sapiens, UniProt P17252); assay: PKC activation assay with purified PKC-α isozyme; type: biochemical
Description: (§2) For measurement of PKC activation by DCPLA-ME, activation of recombinant PKC-α, PKC-ε, and PKC-δ was evaluated. DCPLA-ME induced activation was measured in the absence of diacylglycerol (DAG) and phosphatidylserine (PS) as described earlier. See Nelson, T. J. et al., J. Biol. Chem., 2009, 284: 34514-34521, and Kanno, T. et al., J. Cell Physiol., 2009, 221: 183-188. Individual enzymes were incubated for 15 min at 37° C. in the presence of 10 μM histones, 4.89 mM CaCl2, 10 mM MgCl2, 20 mM HEPES (pH 7.4), 0.8 mM EDTA, 4 mM EGTA, 4% glycerol, 8 μg/ml aprotinin, 8 μg/ml leupeptin, 2 mM benzamidine, and 0.5 μCi of [γ-^32P]ATP. Purified PKC-α, PKC-ε and PKC-δ were preincubated with DCPLA-ME for 5 min at room temperature. [^32P]-Phosphoprotein formation was measured by adsorption onto phosphocellulose.
(§3) To measure PKC, 10 μl of cell homogenate or purified PKC isozyme was incubated for 15 min at 37° C. in the presence of 10 μM histones, 4.89 mM CaCl2, 1.2 μg/μl phosphatidyl-L-serine, 0.18 μg/μl 1,2-dioctanoyl-sn-glycerol, 10 mM MgCl2, 20 mM HEPES (pH 7.4), 0.8 mM EDTA, 4 mM EGTA, 4% glycerol, 8 μg/ml aprotinin, 8 μg/ml leupeptin, and 2 mM benzamidine. [γ32P]ATP (0.5 μCi) was added and 32P-phosphoprotein formation was measured by adsorption onto phosphocellulose as described previously. […]
PKC activity of each compound was measured in the absence of diacylglycerol and phosphatidyl-L-serine and PKC-δ and PKC-ε were measured in the absence of added EGTA and CaCl2, as described by Kanno et al., J. Lipid Res., 2006, 47: 1146-1156. […] To determine their PKC isozyme specificity, the compounds were pre-incubated with purified isoforms of PKC for five minutes and the PKC activity was measured radiometrically.
The activation and PKC isozyme specificity of DCPLA-ethyl ester was measured following the procedures in Example 1(B) and (C), except that 9 ng of the purified isozyme was used and it was pre-incubated for 5 minutes at room temperature (FIG. 3). PKC-ε activation by DCPLA-tert-butyl ester and DCPLA-retinyl ester was measured in the same manner as DCPLA-ethyl ester (FIG. 3).

PKC-δ = PKC-δ (Homo sapiens, UniProt Q05655); assay: PKC activation assay with purified PKC-δ isozyme; type: biochemical
Description: as §2
as §3, with “previously. See Nelson et al., J. Neurochemistry, 1995, 65: 2350-2357.” for “previously.”

Wistar rats [2] = assay: Visible platform test (sensorimotor activity and escape motivation); type: in vivo, rat; conditions: oral DCPLA-ME 5.3 or 16.0 mg/kg
Description: as §1
At the end of the experiments, the rats were also tested in a visible platform test to evaluate whether the treatment might result in an altered sensorimotor activity and escape motivation.

Chain of PKC-δ (Q05655 whole entry): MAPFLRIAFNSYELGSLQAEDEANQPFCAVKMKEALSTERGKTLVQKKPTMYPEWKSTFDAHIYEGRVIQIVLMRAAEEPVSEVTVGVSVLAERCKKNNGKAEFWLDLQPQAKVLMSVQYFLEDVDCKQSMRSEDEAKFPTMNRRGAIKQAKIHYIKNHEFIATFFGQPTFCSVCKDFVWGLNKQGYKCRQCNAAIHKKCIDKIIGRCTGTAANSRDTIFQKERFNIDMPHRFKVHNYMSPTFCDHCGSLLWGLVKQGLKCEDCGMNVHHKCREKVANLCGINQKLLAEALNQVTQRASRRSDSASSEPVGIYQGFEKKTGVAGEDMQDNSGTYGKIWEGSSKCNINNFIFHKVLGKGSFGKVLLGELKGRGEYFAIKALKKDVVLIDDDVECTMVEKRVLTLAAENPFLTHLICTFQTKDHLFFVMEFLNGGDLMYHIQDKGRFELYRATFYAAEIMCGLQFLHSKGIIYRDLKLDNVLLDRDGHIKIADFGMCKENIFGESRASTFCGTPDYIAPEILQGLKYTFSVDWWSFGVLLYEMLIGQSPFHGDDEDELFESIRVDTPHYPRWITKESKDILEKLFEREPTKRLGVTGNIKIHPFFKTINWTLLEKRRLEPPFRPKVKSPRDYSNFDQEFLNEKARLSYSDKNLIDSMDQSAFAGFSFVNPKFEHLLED

- effect on PKC-α (PKC-α): did not have a major effect
SMILES: CCCCCC1CC1CC1CC1CCCCCCCC(=O)OC (stereo not drawn) [DCPLA-ME, DCPLA methyl ester]
- water maze learning performance (escape latency) vs control (Wistar rats [1]; 5.3 mg/kg intragastric): did not reach a significant level
- water maze learning performance (escape latency) vs control (Wistar rats [1]; 16.0 mg/kg intragastric): improved learning performance
- memory retention, target quadrant ratio vs control (Wistar rats [1]; 16.0 mg/kg intragastric, probe test 24 hr after last trial): significant difference
- effect on PKC-δ (PKC-δ): did not have a major effect; also recorded: less inhibitory effect
- sensorimotor ability and escape motivation (Wistar rats [2]): did not affect rats' sensorimotor ability and motivation for an escape
